This is an account of results in patent US20180169045A1, “AMINO ACID COMPOSITIONS AND METHODS FOR THE TREATMENT OF LIVER DISEASES” (AXCELLA HEALTH INC., priority 2016, published 2018).

Assay [1] relates to Primary human PMBC derived macrophages. Briefly: LPS-induced IL-6 secretion in primary human monocyte-derived macrophages (ELISA). The note with it: for LPS-induced IL-6 secretion, in words: primary human monocyte-derived macrophages; for IL-6 Measurements, Mean: Donor 1, baseline subtracted values; for IL-6 Measurements Mean (baseline subtracted): LPS 0.15 ng/mL. Also noted: IL-6 Measurements, Mean: unit not given here. The assay is classed as cell-based. As for the experimental part:
Isolation of Peripheral Blood Mononuclear Cell (PBMC) Unpurified buffy coats (Research Blood Components) were carefully poured into 50 mL centrifuge tubes and diluted with room temperature Dulbecco's Phosphate Buffered Saline (dPBS) with Calcium and Magnesium (Gibco). Diluted buffy coats were further divided into four total 50 mL centrifuge tubes at 20 mL per tube. Lymphocyte Separation Medium (Corning) was carefully pipetted to the bottom of each centrifuge tube. Mixtures were centrifuged at 850×g for 32 minutes at 20° C. with 0 deceleration and acceleration.
CD14+ cells were selected using EasySep™ Human CD14 Positive Selection Kit II ([…] Technologies). Cells were resuspended in cold EasySep™ Buffer ([…] Technologies) at 1×10^8 cells/mL. A total of 100 uL/mL EasySep™ Human CD14 Positive Selection Cocktail II was added to the cell suspension, mixed, and incubated at room temperature for 10 minutes. A total of 100 uL/mL RapidSpheres were added to the mixture and incubated at room temperature for 3 minutes after mixing, then RoboSep buffer was added to bring up the total volume to 10 mL. The mixture in a 15 mL tube was placed in magnet and incubated at room temperature for 3 minutes. Supernatant was discarded and 10 mL fresh EasySep™ buffer was added to 15 mL tube. The addition of RoboSep buffer, mixing, and discarding of supernatant was repeated two more times.
Negative and positive fractions were centrifuged at 490×g for 5 minutes at 20° C. with acceleration of 9, deceleration of 9, and resuspended in DMEM (Gibco) and 10% Heat Inactivated Fetal Bovine Serum (Atlanta Bio) and Penicillin/Streptomycin. Cells were counted and centrifuged again at 490×g for 5 minutes at 20° C. with acceleration of 9, deceleration of 9. After centrifugation, cell were resuspended in DMEM (Gibco) and 10% Heat Inactivated Fetal Bovine Serum (Atlanta Bio) and Penicillin/Streptomycin containing 500 U/mL […] and plated at 1-2×10^6 cells/mL on 10 cm tissue culture plates. Cells were kept in 37° C., 5% CO2 in between feedings/harvest.
Cells were fed every 3-4 days by removing media and unattached cells, centrifuging at 490×g for 5 minutes at 20 C with acceleration of 9, deceleration of 9, and resuspending in fresh DMEM (Gibco) and 10% Heat Inactivated Fetal Bovine Serum (Atlanta Bio) and Penicillin/Streptomycincontaining 500 U/mL GM-CSF. Resuspended cells were seeded back onto 10 cm tissue culture plates and incubated at 37° C., 5% CO2.
After complete cell attachment, culture supernatant was removed and cultures were washed 1× with 5 mL PBS. A total of 3 mL room temperature Cellstripper was added and cultures were incubated at 37° C., 5% CO2 for approximately 10 minutes until cells were rounded and beginning to detach. Cell scraper was used to completely detach cells from plate. Collected cell were spun down at 490 g for 5 min at room temperature and resuspended in 10% DMSO in Heat Inactivated Fetal Bovine Serum and immediately frozen in −80 C.
Primary human PMBC derived macrophages were seeded on day 0 at 3.0E4 cells per well in 96-well microplates (ThermoFisher) in Dulbecco's Modified Eagle Medium (DMEM) (Gibco) supplemented with penicillin-streptomycin (Hyclone) and 10% heat inactivated fetal bovine serum (HI-FBS) (Atlanta Bio) and incubated overnight at 37° C., 5% CO2. On day 1, cells were washed once with 150 uL per well DPBS (Gibco) and treated with 75 uL of: • a. Amino acid free DMEM (US Biologicals) containing a defined custom amino acid concentration based on the mean physiological concentrations in blood based on values published in the Human Metabolome Database (HMDB), with 6 mM glucose, 1 mM sodium pyruvate, 10 mM HEPES, 0.2% primocin (InVivoGen); or • b. The same medium described above with one amino acid at various concentrations including complete dropout. […]
For orientation: ELISA stands for enzyme-linked immunosorbent assay.

Assay [2] concerns LX-2 hepatic stellate cells. Briefly: TGFβ1-induced fibrogenic gene expression (Col1a1, Acta2, Timp2) in LX-2 cells, qRT-PCR. Particulars: TGFβ1 5 ng/mL, combinations at 40× HMDB concentrations, N-acetylcysteine 10 mM. The assay is classed as cell-based.

On to `N=C(N)NCCC[C@H](N)C(=O)O` [Arginine, L-Arginine], for which the “LPS-induced IL-6 secretion, in words” value in assay [1] (Donor 1, 0.15 ng/mL LPS) is listed as “increased”.
For `CC[C@H](C)[C@H](N)C(=O)O` [Isoleucine, L-Isoleucine], the “IL-6 Measurements, Mean” value in assay [1] (Conc. 1328 μM) is on record as 25.98; in assay [1] (Conc. 3320 μM), −15.8843; in assay [1] (Conc. 6639 μM), −218.332. Besides, the “IL-6 Measurements Mean (baseline subtracted)” value (“IL-6 Measurements Mean” below) in assay [1] (Donor 3, Conc. 66 μM (baseline)) is recorded as −6.69; in assay [1] (Donor 3, Conc. 1328 μM) it was −28.9897; in assay [1] (Donor 3, Conc. 6639 μM), −16.3663.
Regarding `CC(=O)N[C@@H](CS)C(=O)O` [N-acetylcysteine], the “Col1a1 gene expression, in words” value in assay [2] was “reduced”. In addition, the “Timp2 gene expression, in words” value in assay [2] is “reduced”. Moreover, the “IL-6 Measurements, Mean” value in assay [1] (Conc. 5 X) is given as 308.1772; in assay [1] (Conc. 10 X), −121.142; in assay [1] (Conc. 20 X) it was −553.802; in assay [1] (Conc. 40 X), −914.194. Also, the “IL-6 Measurements Mean” value in assay [1] (Donor 2, Conc. 0 X (baseline)) is on record as −2.4E−15; in assay [1] (Donor 2, Conc. 20 X) it was −24.9999; in assay [1] (Donor 3, Conc. 0 X (baseline)) it was −9.5E−15; in assay [1] (Donor 3, Conc. 5 X) it was −70.3269; in assay [1] (Donor 3, Conc. 10 X), −103.586; in assay [1] (Donor 3, Conc. 20 X), −122.656. Also, the “IL-6 Measurements Mean” value in assay [1] (Donor 3, Conc. 40 X) was −140.851. Moreover, the “LPS-induced IL-6 secretion, in words” value in assay [1] (Donor 1, 0.15 ng/mL LPS) is “significantly reduced”; in assay [1] (Donor 2, 0.15 ng/mL LPS), “significantly reduced”; in assay [1] (Donor 3, 0.15 ng/mL LPS), “significantly reduced”.
Regarding `NC(=O)CC[C@H](N)C(=O)O` [Glutamine, L-Glutamine], the “IL-6 Measurements, Mean” value is 291.5443 in assay [1] (Conc. 3747 μM), 397.1745 in assay [1] (Conc. 11242 μM) and 440.1437 in assay [1] (Conc. 22484 μM). In addition, the “IL-6 Measurements Mean” value in assay [1] (Donor 3, Conc. 749 μM (baseline)) is reported as 3.79E−14; in assay [1] (Donor 3, Conc. 3747 μM) it was 25.35; in assay [1] (Donor 3, Conc. 11242 μM), 98.4903; in assay [1] (Donor 3, Conc. 22484 μM), 108.5158. Also, the “LPS-induced IL-6 secretion, in words” value is “increased” in assay [1] (Donor 1, 0.15 ng/mL LPS); “increased” in assay [1] (Donor 2, 0.15 ng/mL LPS); “significantly increased” in assay [1] (Donor 3, 0.15 ng/mL LPS).
Turning to `CC(C)[C@H](N)C(=O)O` [Valine, L-Valine], the “IL-6 Measurements, Mean” value in assay [1] (Conc. 4684 μM) is given as −85.9843; in assay [1] (Conc. 11710 μM), −97.25; in assay [1] (Conc. 23420 μM) it was −106.268. Besides, the “IL-6 Measurements Mean” value in assay [1] (Donor 3, Conc. 234 μM (baseline)) is 4.26E−14; in assay [1] (Donor 3, Conc. 4684 μM) it was −30.0609; in assay [1] (Donor 3, Conc. 11710 μM) it was −43.8022; in assay [1] (Donor 3, Conc. 23420 μM), −29.2004.
Turning to `CC(C)C[C@H](N)C(=O)O` [Leucine, L-Leucine], the “IL-6 Measurements, Mean” value in assay [1] (Conc. 3054 μM) is 244.9743; in assay [1] (Conc. 7635 μM) it was −69.9873; in assay [1] (Conc. 15270 μM), 84.46. For the same compound, the “LPS-induced IL-6 secretion, in words” value in assay [1] (Donor 2, 0.15 ng/mL LPS) is “increased”.
